The values below come from patent publication US20240398783A1, “Compounds and Pharmaceutical Compositions Comprising Inhibitors of Amyloid Peptide Interactions with Glycosaminoglycans, Methods of Treatment and Use Thereof” (Gismo Therapeutics, Inc., priority 2021, published 2024).

Counter-ions that a name gives are not always drawn. Like-named read-outs stand apart in the source and are kept apart here.

The target of assay [1] is TDP-43 binding to purified human brain membranes (Homo sapiens, UniProt Q13148). The experiment in a line: Inhibition of TDP-43 binding to purified human brain cell membranes (ELISA). The settings on record: TDP-43, purified human brain membranes. How it is done: (§1) Purified human brain cell membranes were prepared by differential centrifugation as follows. Five grams of frozen human brain postmortem tissue (obtained from University of Kentucky Alzheimer's Disease Center Tissue Bank) was homogenized in 50 ml HEPES-Buffered sucrose (0.32M sucrose, 4 mM HEPES pH7.4, protease inhibitors) with a motor driven glass-teflon homogenizer. After removing nuclear and cell debris by centrifugation of homogenates at 1,000×g for 10 min at 4 degree Celsius, post-nuclear supernatant was centrifuged at 100,000×g for 30 minutes to yield the crude membrane pellet. Crude membrane pellet was re-suspended in 0.32M sucrose, then centrifuged again at 100,000×g for 30 minutes to yield washed membrane pellet. Membrane pellet was resuspended in sterile PBS (pH7.4), quickly frozen, and kept in aliquots at −80 degrees Celsius. This preparation contains human brain cell membranes. Protein concentration was measured with BCA protein assay kit (Pierce Cat. No. 23227). Purified brain membranes were diluted to 0.01 mg/ml in PBS (pH 7.4) and then added to a 96 well polystyrene ELISA plate (NUNC Cat. No. 449824; 100 μl per well). Plates were incubated Over Night (ON) at 4 degrees Celsius. Following the incubation, the plate was washed consecutively, by immersion, with de-ionized water and PBS (pH 7.4). The ELISA plate was then blocked with nonfat milk (2%, 200 μl per well) for 2 hours at Room Temperature (RT). Following blocking, the plate was washed with de-ionized water then PBS (pH 7.4). GBAPs were dissolved and diluted in PBS (pH 6.5, supplemented with 0.1% BSA) at desired concentrations, added to the ELISA plates coated with brain membranes (100 μl per well) and incubated for 2 hours at RT with gentle shaking. Following incubation, the plate was washed with de-ionized water and three times with PBS (pH 6.5) plus Tween. Bound GBAP was detected by a monoclonal antibody specific for that GBAP, followed by incubation with secondary antibody conjugated to horseradish peroxidase (HRP). Antibody was diluted in PBS (pH6.5 supplemented with 1% BSA). Following each incubation with antibody, the plate was washed with de-ionized water and three times with PBS (pH6.5) wash buffer containing 0.1% Tween. The peroxidase substrate chromogen, TMB (Dako Cat. No. S1599) was added (100 μl per well) to the ELISA plate and incubated at room temperature. After 5 minutes ELISA Stop Solution (hydrochloric acid 1N, sulfuric acid 3N) was added (100 μl per well) to stop the peroxidase catalyzed colorimetric reaction. The Optical Density of the samples was measured at 450 nm using an ELISA plate reader (BioTek Synergy H1). Following color development, the % inhibition compared to control was determined. IC-50s were calculated using GraphPad Prism software.
TDP-43 binding to purified human brain membranes, sequence (Q13148 whole entry): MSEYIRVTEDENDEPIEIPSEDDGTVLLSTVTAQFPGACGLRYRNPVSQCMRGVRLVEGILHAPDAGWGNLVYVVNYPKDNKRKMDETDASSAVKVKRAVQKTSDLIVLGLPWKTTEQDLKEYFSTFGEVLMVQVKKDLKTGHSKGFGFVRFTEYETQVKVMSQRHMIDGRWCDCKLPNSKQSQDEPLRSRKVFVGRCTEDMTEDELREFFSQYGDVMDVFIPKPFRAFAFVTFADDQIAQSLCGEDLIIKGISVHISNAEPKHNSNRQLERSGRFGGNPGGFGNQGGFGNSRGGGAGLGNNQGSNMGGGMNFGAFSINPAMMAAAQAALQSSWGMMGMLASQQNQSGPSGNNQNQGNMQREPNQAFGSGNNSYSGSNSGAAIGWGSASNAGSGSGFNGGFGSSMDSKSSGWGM
The assay was performed as described in Example 49, with the following modifications. Following to coating the plates with purified human brain cell membranes, plates were washed as described. The compounds were dissolved in DMSO at 10 mM final concentration and further diluted prior to assay. DMSO concentration in the screening well was up to 2%. Individual compounds were co-incubated with TDP-43 on plates coated with brain membranes. TDP43 from R&D System (Cat. No. AP-190) was quickly frozen and kept in aliquots at −80 degrees Celsius. TDP-43 dissolved in PBS (pH 6.5, supplemented with BSA, 0.1%) was added to the ELISA plate (100 μl per well) and incubated for 2 hours at RT with gentle shaking. Following the incubation, the plate was washed with de-ionized water and three times with PBS (pH 6.5) plus Tween. Bound TDP-43 was detected by Anti-TDP43 Monoclonal Antibody (R&D System Cat. No. MAB7778), followed by secondary anti-IgG antibody conjugated to HRP (R&D System, Cat. No. HAF007). Following to color development with TMB, as described in Example 49, the Optical Density of the samples was measured at 450 nm using an ELISA plate reader. […]
(In an ELISA, binding on a coated surface is turned into a signal by an enzyme label.)

In assay [2] the target is Alpha-Synuclein Protofibril binding to purified human brain membranes (Homo sapiens, UniProt P37840). The experiment in a line: Inhibition of protofibrillar alpha-synuclein binding to purified human brain cell membranes (ELISA). The settings on record: alpha-synuclein protofibrils. How it is done: as §1
The assay was performed as described in Example 49, with the following modifications. Following to coating the plates with human brain membranes, plates were washed as described. The compounds were dissolved in DMSO at 10 mM final concentration and further diluted prior to assay. DMSO concentration in the screening well was up to 2%. Individual compounds were co-incubated with alpha-synuclein on plates coated with brain membranes. Protofibrillar Alpha-synuclein were prepared as described in Example 45. Protofibrillar Alpha-synuclein diluted in PBS (pH 6.5, supplemented with BSA, 0.1%) was added to the ELISA plate (100 μl per well) and incubated for 2 hours at RT with gentle shaking. Following the incubation, the plate was washed with de-ionized water and three times with PBS (pH 6.5) plus Tween. Bound alpha-synuclein was detected by Anti-Alpha-synuclein Monoclonal Antibody 211 (Santa Cruz Cat. No. sc-12767), followed by secondary anti-IgG antibody conjugated to HRP (R&D System, Cat. No. HAF007). Following to color development with TMB, as described in Example 49, the Optical Density of the samples was measured at 450 nm using an ELISA plate reader. […]

[3] abbreviates: read-out: TDP43/Membrane Activity (IC-50).
Setting [4] is: read-out: Alpha-Synuclein/Membrane Activity (IC-50).
The mark [5] stands for this setting: TDP43/Membrane Activity (IC-50).
Setting [6] is: Alpha-Synuclein/Membrane Activity (IC-50).

As for `Cc1cc(-n2ccnc2)ccc1/C=N/Nc1ccnc2cc(Cl)ccc12` [Compound 1, (E)-4-((E)-(4-(1H-imidazol-1-yl)-2-methylbenzylidene)hydrazono)-7-chloro-1,4-dihydroquinoline], the IC50 amounted to 3.42 µM in assay [1] (setting [3]) and 10.1 µM in assay [2] (setting [4]).

Take `Clc1ccc2c(N/N=C/c3ccc(-n4cccn4)cc3)ccnc2c1` [Compound 3, (E)-4-((E)-(4-(1H-pyrazol-1-yl)benzylidene)hydrazono)-7-chloro-1,4-dihydroquinoline]: the IC50 in assay [1] (setting [5]) was 6.57 µM; in assay [2] (setting [6]) it was 7.34 µM.

As for `C[N+](C)(C)Cc1ccc(/C=N\Nc2ccnc3ccc(Cl)cc23)cc1` [Compound 4, (Z)-1-(4-((2-(6-chloroquinolin-4-yl)hydrazineylidene)methyl)phenyl)—N,N,N-trimethylmethanaminium iodide], the IC50 in assay [2] (setting [6]) was found to be 10.7 µM.

On to `Fc1ccc2c(N/N=C/c3ccc(-n4ccnc4)cc3)ccnc2c1` [Compound 5, (E)-4-(2-(4-(1H-imidazol-1-yl)benzylidene)hydrazinyl)-7-fluoroquinoline], for which the IC50 in assay [1] (setting [5]) was determined as 14.1 µM.

Turning to `Fc1ccc2c(N/N=C/c3ccc(CN4CCOCC4)cc3)ccnc2c1` [Compound 6, (E)-4-(4-((2-(7-fluoroquinolin-4-yl)hydrazono)methyl)benzyl)morpholine], the IC50 in assay [2] (setting [6]) amounted to 3.36 µM.

Take `CN1CCN(Cc2ccc(/C=N/Nc3ccnc4cc(Cl)ccc34)cc2)CC1` [Compound 7, (E)-7-chloro-4-(2-(4-((4-methylpiperazin-1-yl)methyl)benzylidene)hydrazinyl)quinolone]: the IC50 in assay [2] (setting [6]) was determined as 42.1 µM.

As for `C(=N\Nc1ccc2c3c(cccc13)CC2)/c1ccc(-n2ccnc2)cc1` [Compound 8, (E)-1-(4-((2-(1,2-dihydroacenaphthylen-5-yl)hydrazineylidene)methyl)phenyl)-1H-imidazole], the IC50 in assay [1] (setting [5]) is 25.2 µM.

In the case of `COc1cc2nccc(N/N=C/c3ccc(-n4ccnc4)c(OC)c3)c2cc1OC` [Compound 13, (E)-4-(2-(4-(1H-imidazol-1-yl)-3-methoxybenzylidene)hydrazineyl)-6,7-dimethoxyquinoline phosphate], the IC50 in assay [2] (setting [6]) is 4.03 µM.

Consider `Clc1ccc2c(N/N=C/c3ccc(-n4ccnc4)nc3)ccnc2c1` [Compound 14, (E)-4-(2-((6-(1H-imidazol-1-yl)pyridin-3-yl)methylene)hydrazineyl)-7-chloroquinoline hydrochloride], for which the IC50 in assay [1] (setting [5]) came out at 4.01 µM; in assay [2] (setting [6]), 6.51 µM.

Take `Cc1ncn(-c2ccc(/C=N\Nc3ncnc4cc(Cl)ccc34)cn2)c1C` [Compound 15, 7-chloro-4-(2-((6-(4,5-dimethyl-1H-imidazol-1-yl)pyridin-3-yl)methylene)hydrazineyl)quinazoline hydrochloride]: the IC50 in assay [1] (setting [5]) turned out to be 3.01 µM; in assay [2] (setting [6]), 3.06 µM.

Regarding `C/C(=N\Nc1ncnc2cc(Cl)ccc12)c1ccc(-n2cnc(C)c2C)nc1` [Compound 16, 7-chloro-4-(2-(1-(6-(4,5-dimethyl-1H-imidazol-1-yl)pyridin-3-yl)ethylidene)hydrazineyl)quinazoline phosphate], the IC50 came to 2.11 µM in assay [1] (setting [5]) and 3.25 µM in assay [2] (setting [6]).

For `C/C(=N\Nc1ncnc2cc(Cl)ccc12)c1ccc(-n2cc[n+](C)c2)nc1` [Compound 17, (E)-1-(5-(1-(2-(7-chloroquinazolin-4-yl)hydrazineylidene)ethyl)pyridin-2-yl)-3-methyl-1H-imidazol-3-ium iodide phosphoric acid salt], the IC50 in assay [1] (setting [5]) was determined as 22.5 µM; in assay [2] (setting [6]) it was 13.1 µM.

Turning to `C/C(=N\Nc1ncnc2cc(Cl)ccc12)c1ccc(-n2cc(C)nc2C)nc1` [Compound 18, (E)-7-chloro-4-(2-(1-(6-(2,4-dimethyl-1H-imidazol-1-yl)pyridin-3-yl)ethylidene)hydrazineyl)quinazoline phosphoric acid salt], the IC50 in assay [1] (setting [3]) came out at 9.28 µM; in assay [2] (setting [4]), 3.73 µM.

Consider `C/C(=N\Nc1ncnc2cc(F)ccc12)c1ccc(-n2cnc(C)c2C)nc1` [Compound 21, (E)-4-(2-(1-(6-(4,5-dimethyl-1H-imidazol-1-yl)pyridin-3-yl)ethylidene)hydrazineyl)-7-fluoroquinazoline], for which the IC50 in assay [1] (setting [3]) was 7.12 µM; in assay [2] (setting [4]) it was 1.8 µM.

Regarding `CC(=NNc1ccnc2cc(Cl)ccc12)c1ccc(-n2cnc(C)c2C)nc1` [Compound 22, 7-chloro-4-(2-(1-(6-(4,5-dimethyl-1H-imidazol-1-yl)pyridin-3-yl)ethylidene)hydrazineyl)quinoline], the IC50 amounted to 12.2 µM in assay [1] (setting [5]) and 10.6 µM in assay [2] (setting [6]).

On to `C/C(=N\Nc1nncc2cc(Cl)ccc12)c1ccc(-n2cc(C)nc2C)nc1` [Compound 24, (E)-6-chloro-1-(2-(1-(6-(2,4-dimethyl-1H-imidazol-1-yl)pyridin-3-yl)ethylidene)hydrazineyl)phthalazine], for which the IC50 in assay [1] (setting [3]) stood at 4 µM; in assay [2] (setting [6]) it was 4.03 µM.

In the case of `Cc1ncn(-c2ccc(Nc3ncnc4cc(Cl)ccc34)cn2)c1C` [Compound 25, 7-chloro-N-(6-(4,5-dimethyl-1H-imidazol-1-yl)pyridin-3-yl)quinazolin-4-amine], the IC50 in assay [1] (setting [5]) came out at 11.5 µM; in assay [2] (setting [6]), 3.4 µM.

Turning to `C/C(=N\Nc1ncnc2cc(F)ccc12)c1ccc(-n2cc[n+](C)c2)nc1` [Compound 26, (E)-1-(5-(1-(2-(7-fluoroquinazolin-4-yl)hydrazineylidene)ethyl)pyridin-2-yl)-3-methyl-1H-imidazol-3-ium phosphoric acid salt], the IC50 in assay [1] (setting [5]) worked out at 27.2 µM.

As for `C/C(=N\Nc1ncnc2cc(Cl)ccc12)c1ccc(-n2cc(C)nc2C)nc1` [Compound 27, (E)-7-chloro-4-(2-(1-(6-(2,4-dimethyl-1H-imidazol-1-yl)pyridin-3-yl)ethylidene)hydrazineyl)quinazoline hydrochloride], the IC50 stood at 2.98 µM in assay [1] (setting [3]) and 7.31 µM in assay [2] (setting [4]).

In the case of `CC(=NNc1ncnc2cc(Cl)ccc12)c1ccnc(-n2cnc(C)c2C)c1` [Compound 28, 7-chloro-4-(2-(1-(2-(4,5-dimethyl-1H-imidazol-1-yl)pyridin-4-yl)ethylidene)hydrazineyl)quinazoline], the IC50 in assay [1] (setting [3]) turned out to be 8.93 µM; in assay [2] (setting [4]) it was 3.17 µM.

On to `Fc1cc(/C=N/Nc2ccnc3cc(Cl)ccc23)ccc1-n1ccnc1` [Compound 35, (E)-7-chloro-4-(2-(3-fluoro-4-(1H-imidazol-1-yl)benzylidene)hydrazineyl)quinoline hydrochloride], for which the IC50 in assay [1] (setting [5]) is 13.1 µM.

For the compound `CCN1CCN(c2ccc(Nc3ccnc4cc5ccccc5cc34)cc2)CC1` [Compound 39, N-(4-(4-ethylpiperazin-1-yl)phenyl)benzo[g]quinolin-4-amine], the IC50 in assay [2] (setting [6]) is 45.8 µM.
